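48-hour exposure; five concentrations; linearly interpolated endpoints. Here, GI50 denotes the concentration required for 50% inhibition of growth. At the TGI there is no net growth.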
Key:
Experiment in all cases: NCI tumour cell line growth inhibition, 48 h
T-47D breast = tested on: T-47D breast
K-562 leukemia = tested on: K-562 leukemia
BT-549 breast = tested on: BT-549 breast
IGROV1 ovarian = tested on: IGROV1 ovarian
SK-OV-3 ovarian = tested on: SK-OV-3 ovarian
SK-MEL-5 melanoma = tested on: SK-MEL-5 melanoma
HCT-116 colon = tested on: HCT-116 colon
NCI/ADR-RES ovarian = tested on: NCI/ADR-RES ovarian
NCI-H23 lung = tested on: NCI-H23 lung
DU-145 prostate = tested on: DU-145 prostate
M14 melanoma = tested on: M14 melanoma
SF-268 CNS = tested on: SF-268 CNS
NCI-H226 lung = tested on: NCI-H226 lung
U251 CNS = tested on: U251 CNS
OVCAR-4 ovarian = tested on: OVCAR-4 ovarian
CAKI-1 renal = tested on: CAKI-1 renal
EKVX NSCLC = tested on: EKVX NSCLC
LOX IMVI melanoma = tested on: LOX IMVI melanoma
SNB-75 CNS = tested on: SNB-75 CNS
UACC-62 melanoma = tested on: UACC-62 melanoma
OVCAR-8 ovarian = tested on: OVCAR-8 ovarian
MOLT-4 leukemia = tested on: MOLT-4 leukemia
HCT-15 colon = tested on: HCT-15 colon
HS 578T breast = tested on: HS 578T breast
NCI-H522 lung = tested on: NCI-H522 lung
COLO 205 colon = tested on: COLO 205 colon
MDA-MB-435 = tested on: MDA-MB-435
RXF 393 renal = tested on: RXF 393 renal
A549 NSCLC = tested on: A549 NSCLC
RPMI-8226 leukemia = tested on: RPMI-8226 leukemia
OVCAR-3 ovarian = tested on: OVCAR-3 ovarian
PC-3 prostate = tested on: PC-3 prostate
KM12 colon = tested on: KM12 colon
CCRF-CEM leukemia = tested on: CCRF-CEM leukemia
MDA-MB-231 breast = tested on: MDA-MB-231 breast
HL-60(TB) leukemia = tested on: HL-60(TB) leukemia
ACHN renal = tested on: ACHN renal
A498 renal = tested on: A498 renal
MALME-3M melanoma = tested on: MALME-3M melanoma
UACC-257 melanoma = tested on: UACC-257 melanoma
786-0 renal = tested on: 786-0 renal
HCC-2998 colon = tested on: HCC-2998 colon
TK-10 renal = tested on: TK-10 renal
SW-620 colon = tested on: SW-620 colon
OVCAR-5 ovarian = tested on: OVCAR-5 ovarian
HOP-62 NSCLC = tested on: HOP-62 NSCLC
UO-31 renal = tested on: UO-31 renal
HT29 colon = tested on: HT29 colon
SK-MEL-28 melanoma = tested on: SK-MEL-28 melanoma
SN12C renal = tested on: SN12C renal
SF-539 CNS = tested on: SF-539 CNS
SR leukemia = tested on: SR leukemia
SF-295 CNS = tested on: SF-295 CNS
SNB-19 CNS = tested on: SNB-19 CNS
SK-MEL-2 melanoma = tested on: SK-MEL-2 melanoma
HOP-92 NSCLC = tested on: HOP-92 NSCLC
NCI-H460 lung = tested on: NCI-H460 lung

C=CCOC1=CC(=O)c2ccccc2C1=O
GI50 (T-47D breast): 2.52 µM
TGI (T-47D breast): 7.85 µM
GI50 (K-562 leukemia): 3.62 µM
TGI (K-562 leukemia): 16.5 µM
GI50 (BT-549 breast): 11.1 µM
TGI (BT-549 breast): 23.2 µM
GI50 (IGROV1 ovarian): 4.34 µM
TGI (IGROV1 ovarian): 13.9 µM
GI50 (SK-OV-3 ovarian): 3.59 µM
TGI (SK-OV-3 ovarian): 12.3 µM
GI50 (SK-MEL-5 melanoma): 1.63 µM
TGI (SK-MEL-5 melanoma): 3.01 µM
GI50 (HCT-116 colon): 2.68 µM
TGI (HCT-116 colon): 6.69 µM
GI50 (NCI/ADR-RES ovarian): 2.68 µM
TGI (NCI/ADR-RES ovarian): 7 µM
GI50 (NCI-H23 lung): 1.76 µM
TGI (NCI-H23 lung): 3.41 µM
GI50 (DU-145 prostate): 2.11 µM
TGI (DU-145 prostate): 3.72 µM
GI50 (M14 melanoma): 2.11 µM
TGI (M14 melanoma): 4.35 µM
GI50 (SF-268 CNS): 4.21 µM
TGI (SF-268 CNS): 14.5 µM
GI50 (NCI-H226 lung): 1.88 µM
TGI (NCI-H226 lung): 4.12 µM
GI50 (U251 CNS): 2.71 µM
TGI (U251 CNS): 6.65 µM
GI50 (OVCAR-4 ovarian): 1.57 µM
TGI (OVCAR-4 ovarian): 2.95 µM
GI50 (CAKI-1 renal): 15.8 µM
TGI (CAKI-1 renal): 68.7 µM
GI50 (EKVX NSCLC): 4.75 µM
TGI (EKVX NSCLC): 26.9 µM
GI50 (LOX IMVI melanoma): 1.71 µM
TGI (LOX IMVI melanoma): 3.65 µM
GI50 (SNB-75 CNS): 2.11 µM
TGI (SNB-75 CNS): 4.08 µM
GI50 (UACC-62 melanoma): 2.01 µM
TGI (UACC-62 melanoma): 4.05 µM
GI50 (OVCAR-8 ovarian): 3.37 µM
TGI (OVCAR-8 ovarian): 12.9 µM
GI50 (MOLT-4 leukemia): 5.36 µM
TGI (MOLT-4 leukemia): 40.4 µM
GI50 (HCT-15 colon): 2.1 µM
TGI (HCT-15 colon): 4.64 µM
GI50 (HS 578T breast): 4.58 µM
TGI (HS 578T breast): 43.2 µM
GI50 (NCI-H522 lung): 2.05 µM
TGI (NCI-H522 lung): 3.9 µM
GI50 (COLO 205 colon): 1.7 µM
TGI (COLO 205 colon): 3.29 µM
GI50 (MDA-MB-435): 1.94 µM
TGI (MDA-MB-435): 3.64 µM
GI50 (RXF 393 renal): 2.45 µM
TGI (RXF 393 renal): 6.03 µM
GI50 (A549 NSCLC): 2.12 µM
TGI (A549 NSCLC): 4.85 µM
GI50 (RPMI-8226 leukemia): 3.2 µM
GI50 (OVCAR-3 ovarian): 2.51 µM
TGI (OVCAR-3 ovarian): 5.44 µM
GI50 (PC-3 prostate): 4.29 µM
TGI (PC-3 prostate): 24.5 µM
GI50 (KM12 colon): 3.23 µM
TGI (KM12 colon): 9.26 µM
GI50 (CCRF-CEM leukemia): 4.37 µM
TGI (CCRF-CEM leukemia): 41.1 µM
GI50 (MDA-MB-231 breast): 5.27 µM
TGI (MDA-MB-231 breast): > 100 µM
GI50 (HL-60(TB) leukemia): 2.75 µM
TGI (HL-60(TB) leukemia): 6.61 µM
GI50 (ACHN renal): 3.23 µM
TGI (ACHN renal): 11.9 µM
GI50 (A498 renal): 1.42 µM
TGI (A498 renal): 19.8 µM
GI50 (MALME-3M melanoma): 1.89 µM
TGI (MALME-3M melanoma): 3.54 µM
GI50 (UACC-257 melanoma): 1.66 µM
TGI (UACC-257 melanoma): 3.72 µM
GI50 (786-0 renal): 4.88 µM
TGI (786-0 renal): 15.6 µM
GI50 (HCC-2998 colon): 8.59 µM
TGI (HCC-2998 colon): 21.9 µM
GI50 (TK-10 renal): 15.4 µM
TGI (TK-10 renal): 28.9 µM
GI50 (SW-620 colon): 2.31 µM
TGI (SW-620 colon): 4.84 µM
GI50 (OVCAR-5 ovarian): 2.38 µM
TGI (OVCAR-5 ovarian): 5.46 µM
GI50 (HOP-62 NSCLC): 1.82 µM
TGI (HOP-62 NSCLC): 3.43 µM
GI50 (UO-31 renal): 2.25 µM
TGI (UO-31 renal): 7.4 µM
GI50 (HT29 colon): 2.39 µM
TGI (HT29 colon): 5.53 µM
GI50 (SK-MEL-28 melanoma): 2.38 µM
TGI (SK-MEL-28 melanoma): 4.44 µM
GI50 (SN12C renal): 2.75 µM
TGI (SN12C renal): 6.45 µM
GI50 (SF-539 CNS): 2.37 µM
TGI (SF-539 CNS): 6.01 µM
GI50 (SR leukemia): 2.24 µM
TGI (SR leukemia): 7.61 µM
GI50 (SF-295 CNS): 2.12 µM
TGI (SF-295 CNS): 4.75 µM
GI50 (SNB-19 CNS): 12.9 µM
TGI (SNB-19 CNS): 29.2 µM
GI50 (SK-MEL-2 melanoma): 2.34 µM
TGI (SK-MEL-2 melanoma): 4.46 µM
GI50 (HOP-92 NSCLC): 4.42 µM
TGI (HOP-92 NSCLC): 15.4 µM
GI50 (NCI-H460 lung): 11.6 µM
TGI (NCI-H460 lung): 31.1 µM

Reference: PubChem BioAssay (NCI)
